From patent publication US5654280A, “Pharmaceutical composition” (Perstorp AB, priority 1989, dated 1997)
Where a name gives a salt, the structure may show the parent alone.

Assays:
[1] = molecular target: membrane preparation from rat hearts (binding sites of D-myo-inositol-1,2,6-triphosphate); test: Displacement of tritiated D-myo-inositol-1,2,6-triphosphate from rat heart membrane preparation; details: rat heart membranes, 60 minutes in ice, 50 mM HEPES pH 7.4
Description: A membrane preparation for binding experiments was prepared at 4° C. Remaining blood was removed from fresh rats hearts (approx. 25 g) and the hearts were minced on chilled plates and blended thoroughly with 20 volumes (v/w) of 0.32M sucrose. The mixture was homogenized using a glass homogenizer followed by centrifugation at 800 g for 10 minutes. The supernatant was thereafter recentrifuged at 21000 g for 20 minutes. The resulting pellets were suspended in 20 volumes of ice cold water before homogenization and centrifugation. The supernatant was collected by pipetting followed by recentrifugation. […]
The assay mixtures were incubated for 60 minutes in ice and binding reactions were terminated by centrifugation for 5 minutes. The surface of the pellets were washed with 1 ml of iced 50 mM HEPES buffer (pH 7.4) before measuring the incorporated radioactivity by means of a scintillation counter.
An IC50 value can be determined by calculation of the replacement ratio of the tritiated reference compound at different concentrations of the specific compound. This value represents the concentration needed to replace half the amount of the tritiated reference compound and is expressed as log (conc. of compound). […] Following the above described procedure the binding properties of 1,5-anhydro-D-arabinitol-2,3,4-trisphosphate was determined. […]

[2] = test system: binding sites for phosphorylated compounds in membrane preparation from rat brains; test: Displacement of tritiated D-myo-inositol-1,3,4,5-tetraphosphate (IP4) from rat brain membrane preparation; details: rat brain plasma membrane fragments saturated with tritiated IP4; remaining radioactivity after addition of compound and washing
Excerpt: A membrane preparation was obtained from rat brains in a way suitable to provide membrane fragments from plasma membranes. From earlier studies these membrane preparations are known to comprise binding sites for phosphorylated compounds. The physiological role of these binding sites are to regulate for example vascular leakage and oedema formation in the body. The degree of binding of a specific compound to these binding sites predicts the efficiency to counteract vascular leakage in vivo.
The membrane preparation was first saturated with a tritiated control compound. The control compound was D-myo-inositol-1,3,4,5-tetraphosphate (IP4). Addition of a further compound having, increased binding properties, compared to the control compound, will result in a replacement of the control compound and thus in a reduction of the radioactivity in the sample.
The 1,5-anhydro-D-arabinitol-2,3,4-trisphosphate pentakis (cyclohexylammonium) salt obtained in Example 2 was added to a membrane preparation as described above. After washing, the radioactivity was 30% compared to the control compound (IP4), thus showing a significant binding to the preparation.

IC50 value (concentration needed to replace half the amount of the tritiated reference compound) [1]	radioactivity after washing compared to the control compound (IP4) [2] [%]	Structure (SMILES)
-6.9 log (conc. of compound)	–	O=P(O)(O)OC1[C@H](OP(=O)(O)O)COC[C@H]1OP(=O)(O)O [1,5-anhydro-D-arabinitol-2,3,4-trisphosphate]
–	30	O=P(O)(O)OC1[C@H](OP(=O)(O)O)COC[C@H]1OP(=O)(O)O [Example 2, 1,5-anhydro-D-arabinitol-2,3,4-trisphosphate pentakis (cyclohexylammonium) salt]
